# Results from US11021493B2, “1,4-thiazine dioxide and 1,2,4-thiadiazine dioxide derivatives as beta-secretase inhibitors and methods of use” (AMGEN INC., priority 2016, dated 2021).
# pIC50: −log10 of the molar value. Counter-ions that a name gives are not always drawn.
# Assays:
# BACE1 [1] = target: T1, BACE1 (Homo sapiens (Human), UniProt P56817); experiment: In vitro enzymatic BACE1 FRET assay; assay type: biochemical; conditions: read-out: BACE1 Enzyme IC50
# Target sequence in this assay (P56817 46-501): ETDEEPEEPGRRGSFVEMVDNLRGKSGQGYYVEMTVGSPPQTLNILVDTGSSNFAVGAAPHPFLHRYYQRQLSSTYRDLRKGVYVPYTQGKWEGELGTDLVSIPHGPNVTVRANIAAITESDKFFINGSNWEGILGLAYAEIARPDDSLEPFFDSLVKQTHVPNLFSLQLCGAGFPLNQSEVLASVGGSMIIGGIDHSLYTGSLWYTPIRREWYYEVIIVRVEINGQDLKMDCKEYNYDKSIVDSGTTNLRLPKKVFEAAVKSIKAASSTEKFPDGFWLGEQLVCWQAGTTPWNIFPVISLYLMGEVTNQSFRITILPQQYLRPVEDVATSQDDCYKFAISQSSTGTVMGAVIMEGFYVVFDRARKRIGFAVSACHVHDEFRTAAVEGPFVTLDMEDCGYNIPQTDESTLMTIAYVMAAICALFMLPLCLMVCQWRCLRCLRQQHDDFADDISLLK
# BACE1 [2] = target: T1, BACE1; experiment: In vitro BACE1 cell-based assay (Aβ40 in conditioned medium of cells stably expressing APP, HTRF)
# Target sequence in this assay (P56817 46-501, species assumed): as the sequence (P56817 46-501) above
# human recombinant BACE2 = human recombinant BACE2 (Homo sapiens (Human), UniProt Q9Y5Z0); experiment: In vitro enzymatic BACE2 FRET assay; assay type: biochemical; conditions: read-out: BACE2 Enzyme IC50
# Sequence of human recombinant BACE2 (Q9Y5Z0 63-518): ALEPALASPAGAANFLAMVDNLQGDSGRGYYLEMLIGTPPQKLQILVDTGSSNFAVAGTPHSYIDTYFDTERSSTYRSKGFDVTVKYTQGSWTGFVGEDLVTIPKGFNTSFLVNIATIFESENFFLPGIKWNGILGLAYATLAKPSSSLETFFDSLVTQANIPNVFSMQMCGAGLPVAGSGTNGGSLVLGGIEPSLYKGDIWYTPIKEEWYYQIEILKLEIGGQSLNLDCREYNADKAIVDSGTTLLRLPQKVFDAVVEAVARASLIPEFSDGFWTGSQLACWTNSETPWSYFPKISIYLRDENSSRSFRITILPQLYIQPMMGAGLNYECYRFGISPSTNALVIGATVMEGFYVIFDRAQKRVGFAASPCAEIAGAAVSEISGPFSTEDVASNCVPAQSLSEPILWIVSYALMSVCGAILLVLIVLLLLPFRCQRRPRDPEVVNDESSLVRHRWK
# Cathepsin D (CatD) = Cathepsin D (CatD) (Homo sapiens (Human), UniProt P07339); experiment: In vitro enzymatic Cathepsin D (CatD) FRET assay; assay type: biochemical; conditions: read-out: Cat D Enzyme IC50
# Sequence of Cathepsin D (CatD) (P07339 65-412, species assumed): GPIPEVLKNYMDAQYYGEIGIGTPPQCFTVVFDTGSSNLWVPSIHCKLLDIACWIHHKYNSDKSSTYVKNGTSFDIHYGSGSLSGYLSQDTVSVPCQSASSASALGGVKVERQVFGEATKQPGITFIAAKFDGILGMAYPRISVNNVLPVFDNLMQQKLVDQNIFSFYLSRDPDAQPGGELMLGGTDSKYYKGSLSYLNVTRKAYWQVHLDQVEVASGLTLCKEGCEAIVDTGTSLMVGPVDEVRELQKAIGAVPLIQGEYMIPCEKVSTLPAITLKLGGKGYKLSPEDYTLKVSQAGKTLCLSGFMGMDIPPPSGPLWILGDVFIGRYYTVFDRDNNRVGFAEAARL
# [3] = Aβ40 in conditioned media after 24 h incubation
Structure (SMILES),pIC50 (BACE1 [1]),pIC50 (BACE1 [2]),pIC50 (BACE1 [2]; [3]),pIC50 (human recombinant BACE2),pIC50 (Cathepsin D (CatD))
"C#CCOc1cnc(/C(F)=C/c2ccc(F)c([C@]3(C)CS(=O)(=O)C(C)(C)C(N)=N3)c2)cn1 [Example 123, (R,Z)-5-amino-3-(2-fluoro-5-(2-fluoro-2-(5-(prop-2-yn-1-yloxy)pyrazin-2-yl)vinyl)phenyl)-3,6,6-trimethyl-3,6-dihydro-2H-1,4-thiazine 1,1-dioxide]",9.00,8.52,–,–,–
"CC1(C)C(N)=N[C@](C)(c2cc(/C=C(\F)c3cnc(O)cn3)ccc2F)CS1(=O)=O [Example 140, (R,Z)-5-amino-3-(2-fluoro-5-(2-fluoro-2-(5-hydroxypyrazin-2-yl)vinyl)phenyl)-3,6,6-trimethyl-3,6-dihydro-2H-1,4-thiazine 1,1-dioxide]",–,–,6.62,6.69,3.75
"CC1(C)C(N)=N[C@](C)(c2cc(/C=C(\F)c3cnc(Cl)cn3)ccc2F)CS1(=O)=O [Example 159, (R,Z)-5-amino-3-(5-(2-(5-chloropyrazin-2-yl)-2-fluorovinyl)-2-fluorophenyl)-3,6,6-trimethyl-3,6-dihydro-2H-1,4-thiazine 1,1-dioxide]",–,–,–,8.52,3.84
"CC#CCOc1cnc(/C(F)=C/c2cc(F)c(F)c([C@]3(C)CS(=O)(=O)N(C)C(N)=N3)c2)cn1 [Example 165, (R,Z)-3-amino-5-(5-(2-(5-(but-2-yn-1-yloxy)pyrazin-2-yl)-2-fluorovinyl)-2,3-difluorophenyl)-2,5-dimethyl-5,6-dihydro-2H-1,2,4-thiadiazine 1,1-dioxide]",–,–,–,7.33,4.74
"C#C[C@H](C)Oc1cnc(/C(F)=C/c2cc(F)c(F)c([C@]3(C)CS(=O)(=O)N(C)C(N)=N3)c2)cn1 [Example 167, (R)-3-amino-5-(5-((Z)-2-(5-((S)-but-3-yn-2-yloxy)pyrazin-2-yl)-2-fluorovinyl)-2,3-difluorophenyl)-2,5-dimethyl-5,6-dihydro-2H-1,2,4-thiadiazine 1,1-dioxide hydrochloride]",–,–,7.96,6.54,4.49
"CC#CCOc1cnc(/C(F)=C/c2ccc(F)c([C@]3(C)CS(=O)(=O)N(C)C(N)=N3)c2)cn1 [Example 168, (R,Z)-3-amino-5-(5-(2-(5-(but-2-yn-1-yloxy)pyrazin-2-yl)-2-fluorovinyl)-2-fluorophenyl)-2,5-dimethyl-5,6-dihydro-2H-1,2,4-thiadiazine 1,1-dioxide]",–,–,–,8.00,4.60
"CN1C(N)=N[C@](C)(c2cc(/C=C(\F)c3cnc(OCC4CCC4)cn3)ccc2F)CS1(=O)=O [Example 174, (R,Z)-3-amino-5-(5-(2-(5-(cyclobutylmethoxy)pyrazin-2-yl)-2-fluorovinyl)-2-fluorophenyl)-2,5-dimethyl-5,6-dihydro-2H-1,2,4-thiadiazine 1,1-dioxide]",–,–,5.85,6.95,4.66
"CN1C(N)=N[C@](C)(c2cc(/C=C(\F)c3cnc(C#N)cn3)ccc2F)C(C)(C)S1(=O)=O [Example 181, (R,Z)-5-(2-(3-(3-amino-2,5,6,6-tetramethyl-1,1-dioxido-5,6-dihydro-2H-1,2,4-thiadiazin-5-yl)-4-fluorophenyl)-1-fluorovinyl)pyrazine-2-carbonitrile]",–,–,–,7.06,3.75
"C#CCOc1cnc(/C(F)=C/c2ccc(F)c([C@@]3(C)N=C(N)N(C)S(=O)(=O)C3(C)C)c2)cn1 [Example 183, (R,Z)-3-amino-5-(2-fluoro-5-(2-fluoro-2-(5-(prop-2-yn-1-yloxy)pyrazin-2-yl)vinyl)phenyl)-2,5,6,6-tetramethyl-5,6-dihydro-2H-1,2,4-thiadiazine 1,1-dioxide]",7.89,–,7.12,–,–
"CC1(C)C(N)=N[C@](C)(c2cc(/C=C(\F)c3cnc(OCC4CC4)cn3)ccc2F)CS1(=O)=O [Example 206, (R,Z)-5-amino-3-(5-(2-(5-(cyclopropylmethoxy)pyrazin-2-yl)-2-fluorovinyl)-2-fluorophenyl)-3,6,6-trimethyl-3,6-dihydro-2H-1,4-thiazine 1,1-dioxide]",–,–,–,6.86,4.13
"CN1C(N)=N[C@](C)(c2cc(/C=C(\F)c3cnc(OCc4cscn4)cn3)cc(F)c2F)CS1(=O)=O [Example 220, (R,Z)-3-amino-5-(2,3-difluoro-5-(2-fluoro-2-(5-(thiazol-4-ylmethoxy)pyrazin-2-yl)vinyl)phenyl)-2,5-dimethyl-5,6-dihydro-2H-1,2,4-thiadiazine 1,1-dioxide]",–,–,–,7.18,4.49
"Cc1cc(COc2cnc(/C(F)=C/c3cc(F)c(F)c([C@]4(C)CS(=O)(=O)N(C)C(N)=N4)c3)cn2)no1 [Example 223, (R,Z)-3-amino-5-(2,3-difluoro-5-(2-fluoro-2-(5-((5-methylisoxazol-3-yl)methoxy)pyrazin-2-yl)vinyl)phenyl)-2,5-dimethyl-5,6-dihydro-2H-1,2,4-thiadiazine 1,1-dioxide]",–,–,–,6.68,4.65
"Cc1noc(COc2cnc(/C(F)=C/c3cc(F)c(F)c([C@]4(C)CS(=O)(=O)N(C)C(N)=N4)c3)cn2)n1 [Example 224, (R,Z)-3-amino-5-(2,3-difluoro-5-(2-fluoro-2-(5-((3-methyl-1,2,4-oxadiazol-5-yl)methoxy)pyrazin-2-yl)vinyl)phenyl)-2,5-dimethyl-5,6-dihydro-2H-1,2,4-thiadiazine 1,1-dioxide]",–,–,–,6.38,4.13
"CN1C(N)=N[C@](C)(c2cc(/C=C(\F)c3cnc(OCc4cocn4)cn3)cc(F)c2F)CS1(=O)=O [Example 225, (R,Z)-3-amino-5-(2,3-difluoro-5-(2-fluoro-2-(5-(oxazol-4-ylmethoxy)pyrazin-2-yl)vinyl)phenyl)-2,5-dimethyl-5,6-dihydro-2H-1,2,4-thiadiazine 1,1-dioxide]",–,–,–,7.08,4.16
"C=CCOc1cnc(/C(F)=C/c2cc(F)c(F)c([C@]3(C)CS(=O)(=O)N(C)C(N)=N3)c2)cn1 [Example 227, (R,Z)-5-(5-(2-(5-(allyloxy)pyrazin-2-yl)-2-fluorovinyl)-2,3-difluorophenyl)-3-amino-2,5-dimethyl-5,6-dihydro-2H-1,2,4-thiadiazine 1,1-dioxide]",7.34,6.37,–,–,–
"CN1C(N)=N[C@](C)(c2cc(/C=C(\F)c3cnc(OCc4ncccn4)cn3)cc(F)c2F)CS1(=O)=O [Example 228, (R,Z)-3-amino-5-(2,3-difluoro-5-(2-fluoro-2-(5-(pyrimidin-2-ylmethoxy)pyrazin-2-yl)vinyl)phenyl)-2,5-dimethyl-5,6-dihydro-2H-1,2,4-thiadiazine 1,1-dioxide]",–,–,–,6.58,4.40
"Cc1nc(COc2cnc(/C(F)=C/c3cc(F)c(F)c([C@]4(C)CS(=O)(=O)N(C)C(N)=N4)c3)cn2)no1 [Example 229, (R,Z)-3-amino-5-(2,3-difluoro-5-(2-fluoro-2-(5-((5-methyl-1,2,4-oxadiazol-3-yl)methoxy)pyrazin-2-yl)vinyl)phenyl)-2,5-dimethyl-5,6-dihydro-2H-1,2,4-thiadiazine 1,1-dioxide]",–,–,–,6.59,4.17
"Cc1nnc(COc2cnc(/C(F)=C/c3cc(F)c(F)c([C@]4(C)CS(=O)(=O)N(C)C(N)=N4)c3)cn2)o1 [Example 233, (R,Z)-3-amino-5-(2,3-difluoro-5-(2-fluoro-2-(5-((5-methyl-1,3,4-oxadiazol-2-yl)methoxy)pyrazin-2-yl)vinyl)phenyl)-2,5-dimethyl-5,6-dihydro-2H-1,2,4-thiadiazine 1,1-dioxide]",–,–,–,6.21,4.29
"Cc1csc(COc2cnc(/C(F)=C/c3cc(F)c(F)c([C@]4(C)CS(=O)(=O)N(C)C(N)=N4)c3)cn2)n1 [Example 237, (R,Z)-3-amino-5-(2,3-difluoro-5-(2-fluoro-2-(5-((4-methylthiazol-2-yl)methoxy)pyrazin-2-yl)vinyl)phenyl)-2,5-dimethyl-5,6-dihydro-2H-1,2,4-thiadiazine 1,1-dioxide]",–,–,–,6.99,4.60
"Cc1nc(COc2cnc(/C(F)=C/c3cc(F)c(F)c([C@]4(C)CS(=O)(=O)N(C)C(N)=N4)c3)cn2)c(C)o1 [Example 238, (R,Z)-3-amino-5-(5-(2-(5-((2,5-dimethyloxazol-4-yl)methoxy)pyrazin-2-yl)-2-fluorovinyl)-2,3-difluorophenyl)-2,5-dimethyl-5,6-dihydro-2H-1,2,4-thiadiazine 1,1-dioxide]",–,–,–,7.03,4.33
"CCOC(=O)COc1cnc(/C(F)=C/c2cc(F)c(F)c([C@]3(C)CS(=O)(=O)N(C)C(N)=N3)c2)cn1 [Example 243, (R,Z)-ethyl 2-((5-(2-(3-(3-amino-2,5-dimethyl-1,1-dioxido-5,6-dihydro-2H-1,2,4-thiadiazin-5-yl)-4,5-difluorophenyl)-1-fluorovinyl)pyrazin-2-yl)oxy)acetate]",–,–,–,6.40,4.04
"Cc1cnc(COc2cnc(/C(F)=C/c3cc(F)c(F)c([C@]4(C)CS(=O)(=O)N(C)C(N)=N4)c3)cn2)o1 [Example 246, (R,Z)-3-amino-5-(2,3-difluoro-5-(2-fluoro-2-(5-((5-methyloxazol-2-yl)methoxy)pyrazin-2-yl)vinyl)phenyl)-2,5-dimethyl-5,6-dihydro-2H-1,2,4-thiadiazine 1,1-dioxide]",–,–,–,6.95,4.46
"CN1C(N)=N[C@](C)(c2cc(/C=C(\F)c3cnc(OCc4nccn4C)cn3)cc(F)c2F)CS1(=O)=O [Example 249, (R,Z)-3-amino-5-(2,3-difluoro-5-(2-fluoro-2-(5-((1-methyl-1H-imidazol-2-yl)methoxy)pyrazin-2-yl)vinyl)phenyl)-2,5-dimethyl-5,6-dihydro-2H-1,2,4-thiadiazine 1,1-dioxide]",–,–,–,5.74,< 3.40
"CN1C(N)=N[C@](C)(c2cc(/C=C(\F)c3cc4nccnc4cn3)ccc2F)CS1(=O)=O [Example 250, (5R)-5-(2-fluoro-5-((Z)-2-fluoro-2-(pyrido[3,4-b]pyrazin-7-yl)ethenyl)phenyl)-2,5-dimethyl-5,6-dihydro-2H-1,2,4-thiadiazin-3-amine 1,1-dioxide]",–,–,–,–,< 3.40
